Data reported in PubChem BioAssay (NCI).
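1) Cells in 96-well plates. 2) Compound, 48 h, 5 concentrations. 3) Linear interpolation between surrounding doses. 4) Unreached endpoint = highest concentration. The concentration for full growth arrest is given as TGI.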

How the values were obtained:
Experiment in all cases: NCI anticancer screen, dose series, 48 h
[1] = test system: SF-268 CNS
[2] = test system: LOX IMVI melanoma
[3] = test system: EKVX NSCLC
[4] = test system: SF-539 CNS
[5] = test system: K-562 leukemia
[6] = test system: HOP-62 NSCLC
[7] = test system: SNB-19 CNS
[8] = test system: RPMI-8226 leukemia
[9] = test system: TK-10 renal
[10] = test system: UACC-62 melanoma
[11] = test system: NCI-H23 lung
[12] = test system: M19-MEL melanoma
[13] = test system: HL-60(TB) leukemia
[14] = test system: M14 melanoma
[15] = test system: U251 CNS
[16] = test system: DMS 273 small cell lung
[17] = test system: NCI-H226 lung
[18] = test system: SR leukemia
[19] = test system: CCRF-CEM leukemia
[20] = test system: A549 NSCLC
[21] = test system: NCI-H460 lung
[22] = test system: SK-MEL-2 melanoma
[23] = test system: OVCAR-5 ovarian
[24] = test system: OVCAR-4 ovarian
[25] = test system: OVCAR-3 ovarian
[26] = test system: ACHN renal
[27] = test system: SK-MEL-28 melanoma
[28] = test system: NCI-H522 lung
[29] = test system: HT29 colon
[30] = test system: MOLT-4 leukemia
[31] = test system: HCT-116 colon
[32] = test system: HCT-15 colon
[33] = test system: SNB-75 CNS
[34] = test system: IGROV1 ovarian
[35] = test system: OVCAR-8 ovarian
[36] = test system: MALME-3M melanoma
[37] = test system: HCC-2998 colon
[38] = test system: SF-295 CNS
[39] = test system: SNB-78 CNS
[40] = test system: SN12C renal
[41] = test system: SK-MEL-5 melanoma
[42] = test system: A498 renal
[43] = test system: LXFL 529 NSCLC
[44] = test system: RXF 393 renal
[45] = test system: SW-620 colon
[46] = test system: UACC-257 melanoma
[47] = test system: SK-OV-3 ovarian
[48] = test system: KM12 colon
[49] = test system: DMS 114 small cell lung
[50] = test system: UO-31 renal
[51] = test system: 786-0 renal
[52] = test system: RXF-631 renal
[53] = test system: COLO 205 colon
[54] = test system: DLD-1 colon
[55] = test system: CAKI-1 renal
[56] = test system: HOP-92 NSCLC
[57] = test system: KM20L2 colon

Measured: TGI

CCC(Oc1ccc(OC)c2ccccc(=O)c12)C(=O)O (centres undefined)
not listed: [54] | [55] | [56] | [57]
> 100 µM: all other assays above

Nc1n[nH]c(CCc2nc(N)n[nH]2)n1
not listed: [18]
> 100 µM: all other assays above
